Experiments:
[1] = system: knock-out mutant of byr2 in Ras-Byr2 pathway (SPSU); assay: Growth (cell number) of byr2 knock-out mutant; type: cell-based, Schizosaccharomyces pombe
Experimental: (§1) To investigate the effect of protoberberine derivatives on the growth of cells, the cells of each strain were cultured in rich medium YE^AU to exponential phase(5×10^7 cells/mL). These cells were transferred to YE^AU medium and cultured for 12 hours. Then cell number was measured every 3 hours.

[2] = system: knock-out mutant of spm1 in Mhk1-Spm1 pathway (TZs69); assay: Growth (cell number) of spm1 knock-out mutant; type: cell-based, Schizosaccharomyces pombe
Experimental: as §1

[3] = system: knock-out mutant of wis1 (JM544); assay: Growth (cell number) of wis1 knock-out mutant; type: cell-based, Schizosaccharomyces pombe; conditions: for inhibition of the activity of Wis1 kinase, concluded from effects on knock-out mutants: conclusion from growth of knock-out mutants; for inhibition of the knock-out mutant of wis1 (in words): table 5
Experimental: To investigate the effect of protoberberine derivatives on the growth of cells, the cells of each strain were cultured in rich medium YE^AU to exponential phase(5×10^7 cells/mL). […]

[4] = system: knock-out mutant of spc1 (KS1366); assay: Growth (cell number) of spc1 knock-out mutant; type: cell-based, Schizosaccharomyces pombe; conditions: for inhibition of the knock-out mutant of spc1 (in words): table 6
Experimental: To investigate the effect of protoberberine derivatives on the growth of cells, the cells of each strain were cultured in rich medium YE^AU to exponential phase(5×10^7 cells/mL). […] Then cell number was measured every 3 hours.

[5] = system: knock-out mutant of wis4 (ED1292); assay: Growth (cell number) of wis4 knock-out mutant; type: cell-based, Schizosaccharomyces pombe; conditions: Table 8, wis4 knock-out
Experimental: as §1
(§2) The knock-out mutant of win1 and wis4 was cultured and treated with 13-(4-t-butylbenzyl)berberine chloride, 13-(4-(t-butyldimethylsilyloxy)benzyl)berberine chloride or 2,3,9,10-tetrapropoxyprotoberberine iodide of the compounds 13-benzylberberine iodide, 13-(4-chloro benzyl)berberine iodide, 13-(3-bromobenzyl)berberine iodide, 13-(2,3-dichlorobenzyl)berberine chloride, 13-(2-chloro-6-fluorobenzyl)berberine chloride, 13-(4-fluoro-2-trifluoromethylbenzyl)berberine chloride, 13-(2,3,4,5,6-pentafluorobenzyl)berberine chloride, 13-(2,3,5,6-tetra fluoro-4-trifluoromethylbenzyl)berberine chloride, 13-(4-methylbenzyl)berberine chloride, 13-(2,4-dimethylbenzyl) berberine chloride, 13-(4-methyl-3-nitrobenzyl)berberine chloride, 13-(3-trifluoromethylbenzyl)berberine chloride, 13-(4-methoxybenzyl)berberine chloride, 13-(4-trifluoro methoxybenzyl)berberine chloride, 13-(4-methoxycarbonyl benzyl)berberine chloride, 13-(4-t-butylbenzyl)berberine chloride, 13-(4-1-propylbenzyl) berberine chloride, 13-(4-(t-butyldimethylsilyloxy)benzyl) berberine chloride, 13-(4-t-butylbenzyl)palmatine iodide, 13-(4-(t-butyldimethyl silyloxy)benzyl)palmatine chloride and 2,3,9,10-tetra propoxyprotoberberine iodide.

[6] = system: KGY246 cells, wild type Saccharomyces pombe; assay: Minimum inhibitory concentration (MIC) on Schizosaccharomyces pombe; type: cell-based; conditions: YE^AU medium; minimal concentration at which cell number stayed constant; 10% ethanol as solvent
Experimental: Measurement of Minimum Inhibitory Concentration(MIC) of Protoberberine Derivatives on Schizosaccharomyces pombe
KGY246 cells, wild type Saccharomyces pombe, were cultured in rich media YE^AU (yeast extract, peptone, malt extract, dextrose, agar: pH 6.2)containing 0.75 mg/L adenine and uracil to exponential phase. To determine minimum inhibitory concentration of each protoproberberine derivative, cells in exponential phase were transferred to YE^AU medium containing variable concentrations of protoberberine derivatives and cell number was measured every 3 hour. Thereafter, the minimal concentration on which cell number was maintained constantly was determined as minimum inhibitory concentration. The minimum inhibitory concentrations of protoberberine derivatives 13-(4-t-butylbenzyl)berberine chloride, 13-(4-(t-butyldimetylsilyloxy)benzyl)berberine chloride and 2,3,9,10-tetrapropoxyprotoberberine iodide of the present invention were 20 ug/mL, 7 ug/mL and 20 ug/mL respectively. To minimize inhibition by solvent itself, 10% ethanol was used as a solvent of protoberberine derivatives. The processes of cell culture and measurement of cell number described above were repeated using 13-benzylberberine iodide, 13-(4-chlorobenzyl)berberine iodide, 13-(3-bromobenzyl)berberine iodide, 13-(2,3-dichlorobenzyl) berberine chloride, 13-(2-chloro-6-fluorobenzyl)berberine chloride, 13-(4-fluoro-2-trifluoromethylbenzyl)berberine chloride, 13-(2,3,4,5,6-pentafluorobenzyl)berberine chloride, 13-(2,3,5,6-tetrafluoro-4-trifluoromethylbenzyl) berberine chloride, 13-(4-methylbenzyl)berberine chloride, 13-(2,4-dimethylbenzyl)berberine chloride, 13-(4-methyl-3-nitrobenzyl)berberine chloride, 13-(3-trifluoromethyl benzyl)berberine chloride, 13-(4-methoxybenzyl)berberine chloride, 13-(4-trifluoromethoxybenzyl)berberine chloride, 13-(4-methoxycarbonylbenzyl)berberine chloride, 13-(4-i-propylbenzyl)berberine chloride. These compounds also had the minimum concentration of inhibition at the concentration of 18-22 ug/mL.

[7] = system: knock-out mutant of win1 (ED1388); assay: Growth (cell number) of win1 knock-out mutant; type: cell-based, Schizosaccharomyces pombe; conditions: Table 7, win1 knock-out
Experimental: as §1, §2

[8] = Table 3, byr2 knock-out, time 12, miconazole 3 ug/mL
[9] = Table 3, byr2 knock-out, time 15, miconazole 3 ug/mL
[10] = Table 3, byr2 knock-out, time 18, miconazole 3 ug/mL
[11] = Table 3, byr2 knock-out, time 21, miconazole 3 ug/mL
[12] = Table 3, byr2 knock-out, time 24, miconazole 3 ug/mL
[13] = Table 4, spm1 knock-out, time 12, miconazole 3 ug/mL
[14] = Table 4, spm1 knock-out, time 15, miconazole 3 ug/mL
[15] = Table 4, spm1 knock-out, time 18, miconazole 3 ug/mL
[16] = Table 4, spm1 knock-out, time 21, miconazole 3 ug/mL
[17] = Table 4, spm1 knock-out, time 24, miconazole 3 ug/mL
[18] = Table 5, wis1 knock-out, time 12, miconazole 3 ug/mL
[19] = Table 5, wis1 knock-out, time 15, miconazole 3 ug/mL
[20] = Table 5, wis1 knock-out, time 18, miconazole 3 ug/mL
[21] = Table 5, wis1 knock-out, time 21, miconazole 3 ug/mL
[22] = Table 5, wis1 knock-out, time 24, miconazole 3 ug/mL
[23] = Table 6, spc1 knock-out, time 15, miconazole 3 ug/mL
[24] = Table 6, spc1 knock-out, time 18, miconazole 3 ug/mL
[25] = Table 6, spc1 knock-out, time 21, miconazole 3 ug/mL
[26] = Table 6, spc1 knock-out, time 24, miconazole 3 ug/mL

SMILES | cell number [1, 8] | cell number [1, 9] | cell number [1, 10] | cell number [1, 11] | cell number [1, 12] | cell number [2, 13] | inhibition of the activity of Wis1 kinase, concluded from effects on knock-out mutants [3] | inhibition of the knock-out mutant of wis1 (in words) [3] | inhibition of the knock-out mutant of spc1 (in words) [4] | cell number ([5]; time 13) | cell number ([5]; time 16) | cell number ([5]; time 19) | cell number ([5]; time 22) | cell number ([5]; time 25) | minimum inhibitory concentration [6] [µg/mL] | cell number ([7]; time 13) | cell number ([7]; time 16) | cell number ([7]; time 19) | cell number ([7]; time 22) | cell number ([7]; time 25) | also measured
CCCOc1cc2c(cc1OCCC)-c1cc3ccc(OCCC)c(OCCC)c3c[n+]1CC2.[I-] [2,3,9,10-tetrapropoxyprotoberberine iodide] | 220 | 207 | 185 | 167 | 155 | 117 | inhibit | not inhibited | completely inhibited | 96 | 113 | 265 | 645 | 1250 | 20 | 102 | 210 | 423 | 750 | 1575 | cell number [2, 14]: 4; cell number [2, 15]: 7; cell number [2, 16]: 165; cell number [2, 17]: 228; cell number [3, 18]: 164; cell number [3, 19]: 325; cell number [3, 20]: 502; cell number [3, 21]: 1041; cell number [3, 22]: 1574; cell number ([4]; Table 6, spc1 knock-out, time 12, miconazole 3 ug/mL): 201; cell number [4, 23]: 382; cell number [4, 24]: 676; cell number [4, 25]: 1232; cell number [4, 26]: 1634; inhibition of the activity of Spc1 kinase, concluded from effects on knock-out mutants ([4]; conclusion from growth of knock-out mutants): inhibit
COc1ccc2c(Cc3ccc(C(C)(C)C)cc3)c3[n+](cc2c1OC)CCc1cc2c(cc1-3)OCO2.[Cl-] [13-(4-t-butylbenzyl)berberine chloride] | 156 | 150 | 147 | 136 | 128 | 89 | inhibit | not inhibited | partially inhibited | 24 | 45 | 36 | 23 | 19 | 20 | 28 | 26 | 17 | 37 | 13 | cell number [2, 14]: 113; cell number [2, 15]: 131; cell number [2, 16]: 118; cell number [2, 17]: 125; cell number [3, 18]: 154; cell number [3, 19]: 319; cell number [3, 20]: 538; cell number [3, 21]: 1265; cell number [3, 22]: 1788; cell number [4, 23]: 299; cell number [4, 24]: 488; cell number [4, 25]: 874; cell number [4, 26]: 1083
COc1ccc2c(Cc3ccc(O[Si](C)(C)C(C)(C)C)cc3)c3[n+](cc2c1OC)CCc1cc2c(cc1-3)OCO2.[Cl-] [13-(4-(t-butyldimethylsilyloxy)benzyl)berberine chloride] | – | – | – | – | – | – | inhibit | not inhibited | not inhibited at all | 37 | 52 | 25 | 36 | 23 | 7 | 31 | 16 | 16 | 26 | 33 | cell number ([1]; Table 2, byr2 knock-out, time 14): 34; cell number ([1]; Table 2, byr2 knock-out, time 17): 72; cell number ([1]; Table 2, byr2 knock-out, time 20): 156; cell number ([1]; Table 2, byr2 knock-out, time 23): 292; cell number ([2]; Table 2, Spm1 knock-out, time 14): 55; cell number ([2]; Table 2, Spm1 knock-out, time 17): 94; cell number ([2]; Table 2, Spm1 knock-out, time 20): 266; cell number ([2]; Table 2, Spm1 knock-out, time 23): 450; cell number ([3]; Table 2, wis1 knock-out, time 14): 257; cell number ([3]; Table 2, wis1 knock-out, time 17): 665; cell number ([3]; Table 2, wis1 knock-out, time 20): 1355; cell number ([3]; Table 2, wis1 knock-out, time 23): 3100; cell number ([4]; Table 2, spc1 knock-out, time 14): 57; cell number ([4]; Table 2, spc1 knock-out, time 17): 90; cell number ([4]; Table 2, spc1 knock-out, time 20): 173; cell number ([4]; Table 2, spc1 knock-out, time 23): 210
